For orientation: EC50 means the concentration at which the effect is half-maximal. A lower EC50 goes with greater potency.

The test relates to glycogen synthase. Put plainly: Glycogen Synthase (GS) Assay. The format is biochemical. Particulars: for EC50: compound concentration needed to give 50% maximum activation; for GS SC200: compound concentration needed to stimulate 200% of the enzyme activity. As to the method:
Twelve μL per well of substrate solution containing glycogen (4.32 mg/'ml), 2.67 mM UDP-glucose, 21.6 mM phospho(enol)pyruvate and 2.7 mM NADH in 30 mM glycylglycine, pH 7.3 buffer was added into a polystyrene 384-well assay plate (BD Biosciences).
Compound solutions (8 μL/well) at various concentrations (0-300 μM) were added to the assay plate (columns 5-24). Compound solution contains 30 mM glycylglycine, pH 7.3, 40 mM KCl, 20 mM MgCl2, 9.2% DMSO, with (columns 15-24) or without (columns 5-14) 20 mM glucose 6-phosphate.
Enzyme solution (12 μL/well) containing glycogen synthase (16.88 μg/ml), pyruvate kinase (0.27 mg/ml), lactate dehydrogenase (0.27 mg/ml) in 50 mM Tris-HCl, pH 8.0, 27 mM DTT and bovine serum albumin (BSA, 0.2 mg/ml) was added to the assay plate (columns 3-24). As a blank control, enzyme solution without glycogen synthase was added into the top half wells of columns 1-2. To the bottom half wells of columns 1-2 were added a known activator, glucose 6-phosphate (at final concentration 5 mM) in addition to the enzyme solution. The reaction mixture was incubated at room temperature. The assay plate was then read for absorbance at 340 nm on an Envision reader every 3 minutes up to a total of 15 minutes.
The enzyme activity (with or without compound) was calculated by the reaction rate and represented by the optical density change (SOD) per minute. Percent stimulation of glycogen synthase activity by a compound at various concentrations was calculated by the following formula: % stimulation=100*Rs/Rt, Where Rs is the reaction rate of the enzyme in the presence of compound and Rt is the reaction rate of the enzyme in the absence of compound.
SC200 is defined as the compound concentration that is needed to stimulate 200% of the enzyme activity. EC50 is defined as the compound concentration that is needed to give 50% maximum activation.

As for `O=C(Nc1cccc(COc2ccc(-c3ccc(F)cc3F)cc2)c1)[C@H]1CCC[C@H]1C(=O)O` (racemic) [Example 2, (trans)-2-[3-(2′,4′-Difluoro-biphenyl-4-yloxymethyl)-phenylcarbamoyl]-cyclopentanecarboxylic acid], it took 5.93 µM to reach a half-maximal effect (EC50) and the “GS SC200” value was determined as 3.24 µM.
In the same order, the values of `O=C(Nc1cccc(COc2ccc(-c3ccc(F)cc3F)cc2)c1)C1CCC[C@H]1C(=O)O` (stereo in doubt) [Example 3, (1R,2R)-2-[3-(2′,4′-Difluoro-biphenyl-4-yloxymethyl)-phenylcarbamoyl]-cyclopentanecarboxylic acid] are 4.4 µM and 1.3 µM.
For the compound `O=C(O)C1CCC[C@@H]1C(=O)Nc1cccc(COc2ccc(-c3ccc(F)cc3F)cc2)c1` (stereo in doubt) [Example 4, (1S,2S)-2-[3-(2′,4′-Difluoro-biphenyl-4-yloxymethyl)-phenylcarbamoyl]-cyclopentanecarboxylic acid], a half-maximal response (EC50) required 6.15 µM and the “GS SC200” value was found to be 2.09 µM.
With `O=C(O)[C@H]1CCC[C@H]1C(=O)Nc1cccc(COc2ccc(-c3ccc(F)cc3F)cc2)c1` (stereo in doubt) [Example 6, (1S,2R)-2-[3-(2′,4′-Difluoro-biphenyl-4-yloxymethyl)-phenylcarbamoyl]-cyclopentanecarboxylic acid], the EC50 is 3.14 µM and the “GS SC200” value stood at 0.77 µM.
On the same counts, the results for `O=C(O)CCC(=O)Nc1cccc(COc2ccc(-c3ccc(F)cc3F)cc2)c1` [Example 1, N-[3-(2′,4′-Difluoro-biphenyl-4-yloxymethyl)-phenyl]-succinamic acid] are 6.96 µM and 2.69 µM.
On to `O=C(Nc1cccc(COc2ccc(-c3ccc(F)cc3F)cc2)c1)[C@H]1CCC[C@H]1C(=O)O` [Example 5, (1R,2S)-2-[3-(2′,4′-Difluoro-biphenyl-4-yloxymethyl)-phenylcarbamoyl]-cyclopentanecarboxylic acid], for which the EC50 came out at 2.84 µM and the “GS SC200” value stood at 0.65 µM.
Take `COc1cc(F)c(F)cc1-c1ccc(OCc2cccc(N3CCC[C@H]3C(=O)O)c2)cc1` [Example 7, (S)-1-[3-(4′,5′-Difluoro-2′-methoxy-biphenyl-4-yloxymethyl)-phenyl]-pyrrolidine-2-carboxylic acid]: the EC50 amounted to 3.71 µM and the “GS SC200” value was determined as 0.7 µM.
`COc1cc(F)c(F)cc1-c1ccc(OCc2cccc(N3CCC[C@H]3CC(=O)O)c2)cc1` [Example 8, {(S)-1-[3-(4′,5′-Difluoro-2′-methoxy-biphenyl-4-yloxymethyl)-phenyl]-pyrrolidin-2-yl}-acetic acid]: the midpoint of the response, the EC50, lay at 6.37 µM and the “GS SC200” value was 2.43 µM.
As for `COc1cc(F)c(F)cc1-c1ccc(OCc2cccc(N(CC(=O)O)C(C)=O)c2)cc1` [Example 9, {Acetyl-[3-(4′,5′-difluoro-2′-methoxy-biphenyl-4-yloxymethyl)-phenyl]-amino}-acetic acid], it took 1.02 µM to reach a half-maximal effect (EC50) and the “GS SC200” value worked out at 0.33 µM.
For `CS(=O)(=O)Nc1cccc(COc2ccc(-c3cc(F)c(F)cc3F)cc2)c1` [Example 10, N-[3-(2′,4′,5′-Trifluoro-biphenyl-4-yloxymethyl)-phenyl]-methanesulfonamide], the response was half-maximal at 5.71 µM (EC50) and the “GS SC200” value was found to be 2.41 µM.
Take `COc1cc(F)c(F)cc1-c1ccc(OCc2cccc(NS(C)(=O)=O)c2)cc1` [Example 11, N-[3-(4′,5′-Difluoro-2′-methoxy-biphenyl-4-yloxymethyl)-phenyl]-methanesulfonamide]: a half-maximal effect (EC50) was put at 2.75 µM and the “GS SC200” value stood at 1.1 µM.
For `O=S(=O)(Nc1cccc(COc2ccc(-c3cc(F)c(F)cc3F)cc2)c1)C(F)(F)F` [Example 12, C,C,C-Trifluoro-N-[3-(2′,4′,5′-trifluoro-biphenyl-4-yloxymethyl)-phenyl]methanesulfonamide], the EC50 came to 1.48 µM and the “GS SC200” value was 0.95 µM.
In the same order, the values of `COc1cc(F)c(F)cc1-c1ccc(OCc2cccc(NS(=O)(=O)C(F)(F)F)c2)cc1` [Example 13, N-[3-(4′,5′-Difluoro-2′-methoxy-biphenyl-4-yloxymethyl)-phenyl]-C,C,C-trifluoromethanesulfonamide] are 0.44 µM and 0.18 µM.

For the origin of these results see patent US7939569B1, “Aniline analogs as glycogen synthase activators” (Hoffmann-La Roche Inc., priority 2009, dated 2011).
